Results: patent US9029574B2, “Bicyclic compound and use thereof for medical purposes” (Ono Pharmaceutical Co., Ltd., priority 2011, dated 2015)

Key:
Assay type in all cases: in vivo
[1] = test system: male monkey (crab-eating monkey); assay: Intraocular pressure lowering action in monkey under consciousness; details: ocular instillation 30 μL, 10 μg/mL; for Maximum intraocular pressure lowering rate (%): maximum up to 24 hours
Method: (2-3) Intraocular Pressure Lowering Action in Monkey Under Consciousness
To a left eye of a male monkey (crab-eating monkey) under consciousness, 30 μL of a solution obtained by adjusting a test substance with using the same base as that described above was ocular instillation-administered and, to a right eye, 30 μL of a solution of only a base as a control was ocular instillation-administered, respectively. An intraocular pressure after administration was measured with time from administration initiation until 24 hours. In case of measurement of an intraocular pressure, a crab-eating monkey was fixed on a monkey chair, and the monkey was anesthetized by ocular instillation-administering an ocular surface anesthetic (Benoxil eye drops 0.4% Santen Pharmaceutical Co., Ltd.). After mounting of a blepharostat (Handaya Co., Ltd.), an intraocular pressure of both eyes was measured (5 to 8 examples per group) with using a pneumatic applanation flat tonometer (Model 30 Classic, REICHERT). A difference in an intraocular pressure value between control eyes and eyes to which a test substance had been administered, was calculated as an intraocular pressure lowering rate with using the following equation, and sustainability of intraocular eye lowering action was assessed using a maximum intraocular pressure lowering rate during measurement and an intraocular pressure lowering rate after 24 hours. As the test substance, the Comparative Compound B, and the compounds of Example 16 (3), Example 16 (25) and Example 16 (35) were used, and an administration dose was 10 μg/mL in all cases.

male dog (TOYO Beagle) = assay: Intraocular pressure lowering action in dog after ocular instillation; details: for Maximum of intraocular pressure lowering rate (%): ocular instillation 30 μL, maximum among 2, 4, 6, 8 and 24 hours; for intraocular pressure lowering action as compared with latanoprost: ocular instillation, in words
Method: As can be easily understood by a person skilled in the art, in an in vivo test, since regarding all test compounds, carboxylic acid which is an active body has bad corneal permeability, pharmacological action of the active body was assessed by ocular instillation administration of a compound which had been converted into an ester such as a methyl ester, an ethyl ester, an isopropyl ester etc. In addition, in a group of the compound of the present inventions, by ocular instillation administration of the ester body in an experimental animal (rabbit, dog etc.) by which pharmacological action is confirmed below and, thereafter, measurement of a drug concentration of carboxylic acid in an aqueous humor, it was confirmed that the ester is rapidly converted into corresponding carboxylic acid.
(2-1) Intraocular Pressure Lowering Action
To one eye of a male dog (TOYO Beagle) which had been sufficiently acclimated in advance, 30 μL of each test compound (the compound of Example 16 (35), the compound of Example 16 (3) and the compound of Example 16 (25)) which had been adjusted with a base (containing citrate buffer pH 6.5, 0.5% polysorbate 80, 1% propylene glycol, […]), was ocular-instilled respectively. The other eye was not treated. As a positive control compound, latanoprost which is the known compound was used.
Thereafter, an ocular surface anesthetic (Benoxil eye drops 0.4%, Santen Pharmaceutical Co., Ltd.) was subjected to ocular instillation to locally anesthetize eyes, and an intraocular pressure of each test compound before ocular instillation and after 2, 4, 6, 8, and 24 hours from ocular instillation was measured. An intraocular pressure was measured using a pneumatic applanation flat tonometer (Model 30 Classic, REICHERT). An intraocular pressure lowering rate (%) was calculated by the following equation.

[2] = test system: male rabbit (NewZealandWhite); assay: Aqueous humor protein concentration in rabbit after ocular instillation; details: ocular instillation 30 μL of 0.1% (w/v), aqueous humor collected 0 to 8 hours
Method: (2-2) Assessment of Ocular Stimulating Property and Aqueous Humor Protein Concentration
To one eye of a male rabbit (NewZealandWhite, 2.0 to 3.0 kg), 30 μL of the compound of Example 16 (35), the compound of Example 16 (3) and the compound of Example 16 (25) which had been adjusted to 0.1% (w/v) with a base (containing citrate buffer pH 6.5, 0.5% polysorbate 80, 1% propylene glycol, 0.01% benzalkonium chloride), was ocular-instilled respectively. Thereafter, an aqueous humor in anterior chamber after 0, 1, 2, 4, 6 and 8 hours from ocular instillation was collected, and a protein concentration in the humor was measured. As a comparative compound, the aforementioned methyl ester of the compound of Example 12 described in Patent Literature 2 (i.e. compound of Example 10 described in Patent Literature 2) (hereinafter, abbreviated as Comparative Compound B in some cases) was used.
Regarding any test compound, a dose until a dissolution limit (150 to 1000 μg/mL) was administered and action of each active body was assessed.

| Structure (SMILES) | Intraocular pressure lowering rate (%) after 24 hours [1] [%] | Maximum intraocular pressure lowering rate (%) [1] [%] | Maximum of intraocular pressure lowering rate (%) (male dog (TOYO Beagle); administration dose 10 μg/mL) | intraocular pressure lowering action as compared with latanoprost (male dog (TOYO Beagle)) | action of raising a protein concentration in an aqueous humor [2] | Maximum of intraocular pressure lowering rate (%) (male dog (TOYO Beagle); administration dose 50 μg/mL) |
| --- | --- | --- | --- | --- | --- | --- |
| CC(C)OC(=O)CCC[C@H]1CC[C@@H]2[C@@H](/C=C/[C@@H](O)COc3cccc(Cl)c3)[C@H](O)C[C@@H]2OC1 [Example 16 (3), 2-Propanyl 4-{(3S,5aR,6R,7R,8aS)-6-[(1E,3R)-4-(3-chlorophenoxy)-3-hydroxy-1-buten-1-yl]-7-hydroxyoctahydro-2H-cyclopenta[b]oxepin-3-yl}butanoate] | 15.1 ± 2.0 | 28.8 ± 2.2 | 35.7 | stronger intraocular pressure lowering action | no action of raising a protein concentration in an aqueous humor |  |
| CC(C)OC(=O)CCC[C@H]1CC[C@@H]2[C@@H](/C=C/[C@@H](O)COc3cc(F)ccc3F)[C@H](O)C[C@@H]2OC1 [Example 16 (25), 2-Propanyl 4-{(3S,5aR,6R,7R,8aS)-6-[(1E,3R)-4-(2,5-difluorophenoxy)-3-hydroxy-1-buten-1-yl]-7-hydroxyoctahydro-2H-cyclopenta[b]oxepin-3-yl}butanoate] | 17.5 ± 2.1 | 26.5 ± 1.7 | 40.6 | stronger intraocular pressure lowering action | no action of raising a protein concentration in an aqueous humor |  |
| CCOC(=O)CCC[C@H]1CC[C@@H]2[C@@H](/C=C/[C@@H](O)COc3ccccc3)[C@H](O)C[C@@H]2OC1 [Example 16 (35), Ethyl 4-{(3S,5aR,6R,7R,8aS)-7-hydroxy-6-[(1E,3R)-3-hydroxy-4-phenoxy-1-buten-1-yl]octahydro-2H-cyclopenta[b]oxepin-3-yl}butanoate] | 14.9 ± 4.7 | 19.2 ± 2.6 | 31 | stronger intraocular pressure lowering action | no action of raising a protein concentration in an aqueous humor |  |
| CC(C)OC(=O)CCC/C=C\C[C@@H]1[C@@H](CC[C@@H](O)CCc2ccccc2)[C@H](O)C[C@@H]1O [Latanoprost, latanoprost, reference compound] |  |  |  |  |  | 25.4 |
